Results reported in the NIST ThermoML archive (doi:10.1021/acs.jced.5b00613).

Assay: xn = mol fraction of the nth substance listed
Conditions: Liquid, Vibrating tube method

CCCCCCCCCCCCCCCC [hexadecane] + CCCCCC
mass density [kg/m3]
Conditions | 100 kPa | 1000 kPa | 5000 kPa | 10000 kPa | 20000 kPa | 30000 kPa | 40000 kPa | 50000 kPa | 60000 kPa
298.15 K, x2 = 0.1985 | 759.7 | 760.3 | 763 | 766.3 | 772.3 | 777.9 | 783.2 | 788.1 | –
298.15 K, x2 = 0.4136 | 744.4 | 745.1 | 748 | 751.4 | 757.8 | 763.7 | 769.2 | 774.4 | 779.5
298.15 K, x2 = 0.5007 | 736.7 | 737.5 | 740.4 | 744 | 750.4 | 756.5 | 762.2 | 767.5 | 772.6
298.15 K, x2 = 0.5966 | 726.9 | 727.5 | 730.6 | 734.3 | 741.1 | 747.4 | 753.2 | 758.6 | 763.9
298.15 K, x2 = 0.7928 | 700.2 | 700.8 | 704.3 | 708.5 | 715.9 | 722.7 | 729 | 734.8 | 740.4
323.15 K, x2 = 0.1985 | 742.3 | 743.2 | 746.2 | 749.9 | 756.7 | 763 | 768.7 | 774.2 | 779.4
323.15 K, x2 = 0.4136 | 726.2 | 727.1 | 730.4 | 734.4 | 741.6 | 748.3 | 754.3 | 760.1 | 765.4
323.15 K, x2 = 0.5007 | 717.7 | 719.1 | 722.6 | 726.7 | 734.1 | 741 | 747.2 | 753 | 758.5
323.15 K, x2 = 0.5966 | 707.8 | 708.9 | 712.4 | 716.7 | 724.4 | 731.5 | 737.9 | 744 | 749.7
323.15 K, x2 = 0.7928 | 679.1 | 680.6 | 684.7 | 689.6 | 698.3 | 706.2 | 713.2 | 719.7 | 725.7
348.15 K, x2 = 0.1985 | 724.4 | 725.2 | 728.7 | 732.9 | 740.6 | 747.6 | 754 | 760 | –
348.15 K, x2 = 0.4136 | 708 | 709 | 712.8 | 717.3 | 725.6 | 733 | 739.7 | 746 | –
348.15 K, x2 = 0.5007 | 698.3 | 700.1 | 704 | 708.6 | 717.2 | 724.9 | 731.8 | 738.2 | –
348.15 K, x2 = 0.5966 | 687.2 | 689.3 | 693.5 | 698.5 | 707.5 | 715.4 | 722.6 | 729.3 | –
348.15 K, x2 = 0.7928 | 658.2 | 659.5 | 664.5 | 670.2 | 680.3 | 689.2 | 697.1 | – | –
